Laboratory results taken from BindingDB's records for doi:10.1021/jm0311442 (University of Newcastle, 2004).
pIC50: −log10 of the molar value.

Biological target: Cyclin-dependent kinase 1/G2/mitotic-specific cyclin-B (Marthasterias glacialis, UniProt P15206+Q9DGD3)
Experiment: Kinase Inhibition Assay

Sequence of Cyclin-dependent kinase 1/G2/mitotic-specific cyclin-B (Q9DGD3 whole entry): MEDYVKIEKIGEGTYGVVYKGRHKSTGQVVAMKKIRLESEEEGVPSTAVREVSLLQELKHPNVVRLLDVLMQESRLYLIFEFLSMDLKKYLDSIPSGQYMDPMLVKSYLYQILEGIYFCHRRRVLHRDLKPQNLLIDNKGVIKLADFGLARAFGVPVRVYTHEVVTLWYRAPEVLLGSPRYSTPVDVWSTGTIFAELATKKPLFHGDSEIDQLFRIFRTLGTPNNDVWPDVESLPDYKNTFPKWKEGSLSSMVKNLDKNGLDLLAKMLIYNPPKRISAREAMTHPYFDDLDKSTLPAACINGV
Sequence of Cyclin-dependent kinase 1/G2/mitotic-specific cyclin-B (P15206 whole entry): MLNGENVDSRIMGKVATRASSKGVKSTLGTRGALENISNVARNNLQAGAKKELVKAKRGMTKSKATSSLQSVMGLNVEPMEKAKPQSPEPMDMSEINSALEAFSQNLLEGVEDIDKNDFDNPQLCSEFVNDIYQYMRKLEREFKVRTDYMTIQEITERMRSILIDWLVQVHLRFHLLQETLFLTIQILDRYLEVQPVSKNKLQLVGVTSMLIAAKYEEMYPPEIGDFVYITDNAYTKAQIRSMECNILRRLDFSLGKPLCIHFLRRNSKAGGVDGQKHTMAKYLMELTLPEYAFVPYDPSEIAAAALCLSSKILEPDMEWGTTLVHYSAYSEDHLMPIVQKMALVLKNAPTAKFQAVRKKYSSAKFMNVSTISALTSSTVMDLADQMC

`CS(=O)(=O)c1ccc(Nc2nc(OCC3CCCCC3)c3[nH]cnc3n2)cc1` [6-(cyclohexylmethoxy)-N-(4-methanesulfonylphenyl)-9H-purin-2-amine] showed a pIC50 of 7.10.
